Test results taken from patent US20110105515A1, “TARGETING THE ONCOPROTEIN NUCLEOPHOSMIN” (President and Fellows of Harvard College, priority 2007, published 2011).

What was measured:
[1] = test system: MALME-3M; conditions: MALME-3M (Melanoma), 48 hours, SRB
[2] = test system: MDA-MB-231/ATCC; conditions: MDA-MB-231/ATCC (Breast Cancer), 48 hours, SRB
[3] = test system: HOP-62; conditions: HOP-62 (Non-Small Cell Lung Cancer), 48 hours, SRB
[4] = test system: A498; conditions: A498 (Renal Cancer), 48 hours, SRB
[5] = test system: M14; conditions: M14 (Melanoma), 48 hours, SRB
[6] = test system: COLO 205; conditions: COLO 205 (Colon Cancer), 48 hours, SRB
[7] = test system: SK-MEL-5; conditions: SK-MEL-5 (Melanoma), 48 hours, SRB
[8] = test system: SK-MEL-28; conditions: SK-MEL-28 (Melanoma), 48 hours, SRB
[9] = test system: KM12; conditions: KM12 (Colon Cancer), 48 hours, SRB
[10] = test system: ACHN; test: cells; conditions: Homo sapiens, 48 h; for CC50: read-out: LC50
[11] = test system: IGROV1; conditions: IGROV1 (Ovarian Cancer), 48 hours, SRB
[12] = test system: BT-549; conditions: BT-549 (Breast Cancer), 48 hours, SRB
[13] = test system: RPMI-8226; test: cells; conditions: Homo sapiens, RPMI-8226, 48 h
[14] = test system: K-562; conditions: K-562 (Leukemia), 48 hours, SRB
[15] = test system: UACC62; conditions: UACC62 (Melanoma), 48 hours, SRB
[16] = test system: LOX IMVI; conditions: LOX IMVI (Melanoma), 48 hours, SRB
[17] = test system: UO-31; conditions: UO-31 (Renal Cancer), 48 hours, SRB
[18] = test system: SNB-19; conditions: SNB-19 (CNS Cancer), 48 hours, SRB
[19] = test system: NCI-H460; test: cells; conditions: Homo sapiens, NCI-H460, 48 h
[20] = test system: OVCAR-4; conditions: OVCAR-4 (Ovarian Cancer), 48 hours, SRB
[21] = test system: HCC-2998; conditions: HCC-2998 (Colon Cancer), 48 hours, SRB
[22] = test system: OVCAR-5; conditions: OVCAR-5 (Ovarian Cancer), 48 hours, SRB
[23] = test system: NCI/ADR-RES; test: cells; conditions: Homo sapiens, 48 h; for CC50: read-out: LC50
[24] = test system: HCT-116; conditions: HCT-116 (Colon Cancer), 48 hours, SRB
[25] = test system: MCF7; conditions: MCF7 (Breast Cancer), 48 hours, SRB
[26] = test system: OVCAR-3; test: cells; conditions: Homo sapiens, OVCAR-3, 48 h; for CC50: read-out: LC50
[27] = test system: U251; conditions: U251 (CNS Cancer), 48 hours, SRB
[28] = test system: NCI-H460; conditions: NCI-H460 (Non-Small Cell Lung Cancer), 48 hours, SRB
[29] = test system: HL-60(TB); test: cells; conditions: Homo sapiens, HL-60, 48 h; for CC50: read-out: LC50
[30] = test system: SNB-75; conditions: SNB-75 (CNS Cancer), 48 hours, SRB
[31] = test system: SK-OV-3; conditions: SK-OV-3 (Ovarian Cancer), 48 hours, SRB
[32] = test system: NCI-H522; conditions: NCI-H522 (Non-Small Cell Lung Cancer), 48 hours, SRB

Row | SMILES | TGI [1] | TGI [2] | TGI [3] | TGI [4] | TGI [5] | TGI [6] | TGI [7] | TGI [8] | TGI [9] | GI50 [10] | CC50 [10] | TGI [12] | GI50 [13] | TGI [14] | TGI [15] | TGI [16] | TGI [17] | TGI [18] | GI50 [19] | TGI [20] | further results
1 | [2H]On1c2c(c3ccc4c(c31)C=CC(C)(C)O4)C(OC([2H])([2H])[2H])[C@@]13NC(=O)C4(CCCN4C1=O)CC3C2(C)C (stereo partly shown) [Deuterated Methanol Adduct] | 1560 nM | 1830 nM | 7030 nM | 2220 nM | 2500 nM | 1450 nM | 2710 nM | 1820 nM | 2520 nM | 1270 nM | 5030 nM | 1990 nM | 40.2 nM | 3070 nM | 1920 nM | 2140 nM | 1840 nM | 2310 nM | 1800 nM | 1630 nM | TGI [11]: 2040 nM; CC50 ([13]; read-out: LC50): 3300 nM; CC50 ([19]; read-out: LC50): 7170 nM; TGI [21]: 2010 nM; TGI [22]: 1910 nM; GI50 [23]: 2610 nM; CC50 [23]: 39400 nM; TGI [24]: 1970 nM; TGI [25]: 1330 nM; GI50 [26]: 616 nM; CC50 [26]: 4270 nM; TGI [27]: 1370 nM; TGI [28]: 3600 nM; GI50 [29]: 298 nM; CC50 [29]: 9370 nM; TGI [30]: 1270 nM; TGI [31]: 2160 nM; TGI [32]: 1800 nM
2 | Cc1cc(C)cc(-c2ccc3c(c2)[N+]([O-])=C2C3=C[C@@]34NC(=O)C5(CCCN5C3=O)CC4C2(C)C)c1 (stereo partly shown) [Biphenyl Analogue] | 244 nM | 1050 nM | 3320 nM | 1320 nM | 556 nM | 259 nM | 324 nM | 1080 nM | 740 nM | 214 nM | 2260 nM | 379 nM | 10.2 nM | 358 nM | 471 nM | 273 nM | 731 nM | 950 nM | 326 nM | 1720 nM | TGI [21]: 1060 nM; TGI [22]: 1700 nM; GI50 [23]: 992 nM; CC50 [23]: 5180 nM; TGI [24]: 377 nM; TGI [25]: 984 nM; GI50 [26]: 158 nM; CC50 [26]: 986 nM; TGI [27]: 273 nM; TGI [28]: 1180 nM; GI50 [29]: 131 nM; CC50 [29]: 64300 nM; TGI [30]: 757 nM; TGI [31]: 1190 nM; TGI [32]: 297 nM
